Assay results reported in ChEMBL document CHEMBL1146939, “Design, synthesis, and biological evaluations of novel oxindoles as HIV-1 non-nucleoside reverse transcriptase inhibitors. Part 2” (Bioorg Med Chem Lett, 2006).

Tests used:
[1] = tested on: Human immunodeficiency virus 1; assay: Antiviral activity against HIV1 in HEK293T cells; type: functional, organism-based; conditions: Human immunodeficiency virus 1, HEK-293T
HEK293 = assay: Cytotoxicity against HEK293T cells; type: functional; conditions: Homo sapiens
[2] = tested on: Human immunodeficiency virus 1; assay: Antiviral activity against HIV1 L100I mutant; type: functional, organism-based
[3] = tested on: Human immunodeficiency virus 1; assay: Antiviral activity against HIV1 K103N mutant; type: functional, organism-based
[4] = tested on: Human immunodeficiency virus 1; assay: Antiviral activity against HIV1 V106A mutant; type: functional, organism-based
[5] = tested on: Human immunodeficiency virus 1; assay: Antiviral activity against HIV1 I135T mutant; type: functional, organism-based
[6] = tested on: Human immunodeficiency virus 1; assay: Antiviral activity against HIV1 I135V mutant; type: functional, organism-based
[7] = tested on: Human immunodeficiency virus 1; assay: Antiviral activity against HIV1 E138K mutant; type: functional, organism-based
[8] = tested on: Human immunodeficiency virus 1; assay: Antiviral activity against HIV1 V179E mutant; type: functional, organism-based
[9] = tested on: Human immunodeficiency virus 1; assay: Antiviral activity against HIV1 Y181C mutant; type: functional, organism-based
[10] = tested on: Human immunodeficiency virus 1; assay: Antiviral activity against HIV1 Y188L mutant; type: functional, organism-based
[11] = tested on: Human immunodeficiency virus 1; assay: Antiviral activity against HIV1 F227C mutant; type: functional, organism-based
[12] = tested on: Human immunodeficiency virus 1; assay: Antiviral activity against HIV1 F227L mutant; type: functional, organism-based

Compound | EC50 [1] | CC50 (HEK293) | other results
O=C1Nc2ccc(Cl)cc2[C@@]12C[C@@H]2c1ccncc1 | > 10 µM | > 10 µM | 
O=C1Nc2ccc(Cl)cc2[C@@]12C[C@@H]2c1cccn1S(=O)(=O)c1ccccc1 | 6.77 µM | > 10 µM | 
C=Cc1cccc([C@H]2C[C@]23C(=O)Nc2ccc(Cl)cc23)n1 | 0.005 µM | > 10 µM | EC50 [2]: 0.178 µM; EC50 [3]: 11.1 µM; EC50 [4]: 0.149 µM; EC50 [5]: 0.016 µM; EC50 [6]: < 0.003 µM; EC50 [7]: 0.02 µM; EC50 [8]: 0.088 µM; EC50 [9]: 0.085 µM; EC50 [10]: 22.6 µM; EC50 [11]: 0.578 µM; EC50 [12]: 0.088 µM
O=C1Nc2ccc(Cl)cc2[C@@]12C[C@@H]2c1ccc2c(O)cccc2n1 | 0.587 µM | > 10 µM | 
C=Cc1cccc([C@H]2C(C)(C)[C@]23C(=O)Nc2ccc(Cl)cc23)n1 | 0.008 µM | > 10 µM | EC50 [2]: 0.228 µM; EC50 [3]: 0.696 µM; EC50 [4]: 0.041 µM; EC50 [5]: 0.037 µM; EC50 [6]: 0.029 µM; EC50 [7]: 0.026 µM; EC50 [8]: 0.01 µM; EC50 [9]: 0.12 µM; EC50 [10]: 1.07 µM; EC50 [11]: 0.087 µM; EC50 [12]: 0.014 µM
O=C1Nc2ccc(Cl)cc2[C@@]12C[C@@H]2c1cc(Br)cs1 | 1.27 µM | > 10 µM | 
O=C1Nc2ccc(Cl)cc2[C@@]12C[C@@H]2c1cccc(Br)n1 | 0.023 µM | > 10 µM | EC50 [2]: 0.277 µM; EC50 [3]: 1.93 µM; EC50 [4]: 0.166 µM; EC50 [5]: 0.046 µM; EC50 [6]: 0.014 µM; EC50 [7]: 0.032 µM; EC50 [8]: 0.048 µM; EC50 [9]: 0.134 µM; EC50 [10]: 6.52 µM; EC50 [11]: 0.145 µM; EC50 [12]: 0.048 µM
O=C1Nc2ccc(Cl)cc2[C@@]12C[C@@H]2c1cc([N+](=O)[O-])cs1 | > 10 µM | > 10 µM | 
CC1(C)[C@H](c2ccc3ccccc3n2)[C@@]12C(=O)Nc1ccc(Cl)cc12 | 0.01 µM | > 10 µM | EC50 [2]: 0.058 µM; EC50 [3]: 2.35 µM; EC50 [4]: 0.102 µM; EC50 [5]: 0.055 µM; EC50 [6]: 0.047 µM; EC50 [7]: 0.071 µM; EC50 [8]: 0.483 µM; EC50 [9]: 0.717 µM; EC50 [10]: > 10 µM; EC50 [11]: 2.08 µM; EC50 [12]: 0.381 µM
O=C1Nc2ccc(Cl)cc2[C@@]12C[C@@H]2c1cccc[n+]1[O-] | > 10 µM | > 10 µM | 
CC#Cc1cccc([C@H]2C[C@]23C(=O)Nc2ccc(Cl)cc23)n1 | 0.648 µM | > 10 µM | 
O=C1Nc2ccc(Cl)cc2[C@@]12C[C@@H]2c1ccccc1Br | > 10 µM | > 10 µM | 
O=C1Nc2ccc(Cl)cc2[C@@]12C[C@@H]2c1cccc(-c2ccco2)n1 | 0.018 µM | 7.95 µM | EC50 [2]: 2.09 µM; EC50 [3]: 14.3 µM; EC50 [4]: 2.52 µM; EC50 [5]: 0.076 µM; EC50 [6]: 0.055 µM; EC50 [7]: 0.028 µM; EC50 [8]: 0.101 µM; EC50 [9]: 0.265 µM; EC50 [10]: 23.1 µM; EC50 [11]: 0.658 µM; EC50 [12]: 2.35 µM
O=C1Nc2ccc(Cl)cc2[C@@]12C[C@@H]2c1ccc(-c2cccc(C(F)(F)F)c2)o1 | 5.55 µM | > 10 µM | 
O=C1Nc2ccc(Cl)cc2[C@@]12C[C@@H]2c1nn[nH]n1 | > 10 µM | 7.61 µM | 
Cn1cccc1-c1cccc([C@H]2C[C@]23C(=O)Nc2ccc(Cl)cc23)n1 | 0.557 µM | > 10 µM | 
O=C1Nc2ccc(Cl)cc2[C@@]12C[C@@H]2c1cc2ccccc2s1 | 4.97 µM | > 10 µM | 
CC(=O)/C=C/c1cccc([C@H]2C[C@]23C(=O)Nc2ccc(Cl)cc23)n1 | 1.81 µM | 6.13 µM | 
Cc1ccsc1[C@H]1C[C@]12C(=O)Nc1ccc(Cl)cc12 | 0.844 µM | > 10 µM | 
O=C1Nc2ccc(Cl)cc2[C@@]12C[C@@H]2c1ccc(F)cc1 | > 10 µM | > 10 µM | 
Cn1ccnc1[C@H]1C[C@]12C(=O)Nc1ccc(Cl)cc12 | > 10 µM | > 10 µM | 
O=C1Nc2ccc(Cl)cc2[C@@]12C[C@@H]2c1cccnc1 | > 10 µM | > 10 µM | 
O=C1Nc2ccc(Cl)cc2[C@@]12C[C@@H]2c1ccc2ccccc2c1 | > 10 µM | > 10 µM | 
Cn1cccc1[C@H]1C[C@]12C(=O)Nc1ccc(Cl)cc12 | > 10 µM | > 10 µM | 
O=C1Nc2ccc(Cl)cc2[C@@]12C[C@@H]2c1nccs1 | > 10 µM | > 10 µM | 
COc1ccc([C@H]2C[C@]23C(=O)Nc2ccc(Cl)cc23)cc1 | > 10 µM | > 10 µM | 
O=C1Nc2ccc(Cl)cc2[C@@]12C[C@@H]2c1cccc(-c2cccs2)n1 | 0.016 µM | > 10 µM | EC50 [2]: 0.1 µM; EC50 [3]: 2.24 µM; EC50 [4]: 0.147 µM; EC50 [5]: 0.068 µM; EC50 [6]: 0.263 µM; EC50 [7]: 0.038 µM; EC50 [8]: 0.06 µM; EC50 [9]: 0.063 µM; EC50 [10]: 1.97 µM; EC50 [11]: 0.313 µM; EC50 [12]: 0.365 µM
Cn1nnnc1[C@H]1C[C@]12C(=O)Nc1ccc(Cl)cc12 | > 10 µM | > 10 µM | 
O=C1Nc2ccc(Cl)cc2[C@@](C#CC2CC2)(C(F)(F)F)O1 [EFAVIRENZ] |  | 10 µM | EC50 [5]: 0.001 µM; EC50 [9]: 0.0011 µM; EC50 [11]: 0.008 µM
Cc1ccnc2c1NC(=O)c1cccnc1N2C1CC1 [NEVIRAPINE] |  | > 10 µM | EC50 [5]: 0.207 µM; EC50 [9]: > 10 µM; EC50 [10]: > 10 µM; EC50 [11]: 0.733 µM

More lines, in order of falling EC50 [1], values ahead:

EC50 [1] | Compound | CC50 (HEK293) | other results
0.504 µM | O=C1Nc2ccc(Cl)cc2[C@@]12C[C@@H]2c1cccc(-c2ccccn2)n1 | > 10 µM | 
0.463 µM | COc1c(C)cnc([C@H]2C[C@]23C(=O)Nc2ccc(Cl)cc23)c1C | > 10 µM | 
0.436 µM | CSc1nc([C@H]2C[C@]23C(=O)Nc2ccc(Cl)cc23)ccc1C#N | > 10 µM | 
0.245 µM | O=C1Nc2ccc(Cl)cc2[C@@]12C[C@@H]2c1ccc(Br)o1 | > 10 µM | 
0.244 µM | O=C1Nc2ccc(Cl)cc2[C@@]12C[C@@H]2c1ccccc1 | > 10 µM | 
0.216 µM | CCc1ccc([C@H]2C[C@]23C(=O)Nc2ccc(Cl)cc23)o1 | > 10 µM | 
0.2 µM | O=C1Nc2ccc(Cl)cc2[C@@]12C[C@@H]2c1ccco1 | > 10 µM | 
0.18 µM | Cc1cnc([C@H]2C[C@]23C(=O)Nc2ccc(Cl)cc23)c(C)c1[N+](=O)[O-] | > 10 µM | 
0.167 µM | COC(=O)c1cc(OC)cc(OC)c1[C@H]1C[C@]12C(=O)Nc1ccc(Cl)cc12 | > 10 µM | 
0.16 µM | CCc1ccc([C@H]2C[C@]23C(=O)Nc2ccc(Cl)cc23)s1 | > 10 µM | 
0.138 µM | O=C1Nc2ccc(Cl)cc2[C@@]12C[C@@H]2c1cccc(-c2ccccc2)n1 | > 10 µM | 
0.086 µM | O=C1Nc2ccc(Cl)cc2[C@@]12C[C@@H]2c1cc2ccccc2o1 | > 10 µM | 
0.073 µM | Cc1ccc([C@H]2C[C@]23C(=O)Nc2ccc(Cl)cc23)o1 | > 10 µM | 
0.055 µM | Cn1nnc([C@H]2C[C@]23C(=O)Nc2ccc(Cl)cc23)n1 | > 10 µM | 
0.039 µM | Cc1cccc([C@H]2C[C@]23C(=O)Nc2ccc(Cl)cc23)n1 | > 10 µM | 
0.028 µM | CC1(C)[C@H](c2cccc(Br)n2)[C@@]12C(=O)Nc1ccc(Cl)cc12 | 5.24 µM | 
0.023 µM | O=C1Nc2ccc(Cl)cc2[C@@]12C[C@@H]2c1ccc(Br)cn1 | > 10 µM | 
0.01 µM | O=C1Nc2ccc(Cl)cc2[C@@]12C[C@@H]2c1ccc2ccccc2n1 | > 10 µM | 
